Source: US20230258642A1, “COMPOSITIONS AND METHODS FOR IDENTIFICATION OF MODULATORS OF RAS PROTEIN COMPLEXES” (QUANTA THERAPEUTICS, INC., priority 2020, published 2023)
Values belong to the molecule of their own block, whether it stands above or below them.

How the values were obtained:
Annexin V = target: T1, Annexin V (Homo sapiens, UniProt P08758); test: Annexin V counter-screen SHG assay on phosphatidyl serine surface; type: binding
T1 sequence (P08758 1-320): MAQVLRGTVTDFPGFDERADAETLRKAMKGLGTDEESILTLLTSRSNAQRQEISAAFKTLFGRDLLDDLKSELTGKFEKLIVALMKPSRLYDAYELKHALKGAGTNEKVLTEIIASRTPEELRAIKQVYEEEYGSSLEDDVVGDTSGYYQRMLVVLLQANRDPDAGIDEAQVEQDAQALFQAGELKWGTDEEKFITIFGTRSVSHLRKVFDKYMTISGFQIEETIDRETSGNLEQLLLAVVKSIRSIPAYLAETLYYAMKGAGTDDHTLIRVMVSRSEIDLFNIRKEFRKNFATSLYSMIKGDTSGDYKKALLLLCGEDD
Source text: Annexin V binds to phosphatidyl serine membrane like KRAS^G12D-FMe in a calcium-dependent manner. However, Annexin V is structurally unrelated to KRAS/RAF1 complex. Addition of EDTA, a chelation agent, results in >80% decrease in SHG signal due to loss of Annexin V protein from the phosphatidyl serine surface. […] This assay was established as a counter-screen assay to the KRAS^G12D-FMe+SH-active RAF1^RBDCRD interaction, allowing detection of false-positives due to metal chelation or non-specific protein binding.

[1] = target: T2, KRAS^G12D-FMe+RAF1^RBDCRD-SHG2 complex (Homo sapiens, UniProt P01116, G12D); test: SHG complex assay: KRAS^G12D-FMe + SH-active RAF1^RBDCRD complex tethered to a PS bilayer; type: binding; conditions: complex tethered overnight in the presence of 1 mM GDP
T2 construct: 1; farnesyl and carboxymethyl modification (FMe) at the C-terminal Cys
Experimental: Factors contributing towards maximizing the complex SHG signal compared to bilayer-tethered KRAS^G12D-FMe alone were further optimized in order to develop a robust screening assay that would allow the separation of real conformational modulators from the baseline signal noise. Accordingly, a pre-formed complex was tethered to the bilayer and the baseline SHG intensity of the complex was compared to each individual component.
In comparison, each protein component was incubated on the PS bilayer to make sure the SHG signal generated by the complex was distinct from any signal produced by the individual components (FIG. 3B). The PS bilayer alone produced a baseline SHG signal around 6000. […]
Since RAF1 binding to KRAS is nucleotide dependent, the SHG signal change was monitored in the presence of 10 mM EDTA and 1 mM GDP. […] The SHG response to this control reinforced that the detected complex signal behaves according to its characterized biology.
A beam from a Ti:S femtosecond laser is used as the fundamental according to procedures known to those skilled in the art. […] Second harmonic light generated by the surface is collected, filtered from the fundamental, and detected by a photomultiplier tube (PMT) according to procedures known to those skilled in the art. A baseline signal with declining intensity due to photobleaching is recorded. […]

decrease in SHG signal (loss of Annexin V from phosphatidyl serine surface) (Annexin V): > 80%
Structure (SMILES): O=C(O)CN(CCN(CC(=O)O)CC(=O)O)CC(=O)O [EDTA]

complex SHG signal [1]: no complex SHG signal was detected
Structure (SMILES): Nc1nc2c(ncn2[C@@H]2O[C@H](COP(=O)(O)OP(=O)(O)O)[C@@H](O)[C@H]2O)c(=O)[nH]1 [GDP]

SHG response upon addition to Annexin V (Annexin V): dose-dependent SHG response
Structure (SMILES): COc1ccc2c(c1)CN(C(=O)CCN1CCC(Cc3ccccc3)CC1)CCS2 [K201]
